The IC50 is the concentration that inhibits the measured activity by half.

The values that follow come from paper PMC3445474 (PLoS ONE, 2012).

Several values for one entry are separate records, joined by “and”; a condition that tells them apart may be missing. Equal values may be shown once. Read-outs that look alike come from different tables or passages of the source.

In data set [1] the test system is viral and bacterial neuraminidases. Type of data set: biochemical, influenza viruses, bacteria, human saliva. Particulars: read-out: IC50, viral, bacterial and saliva neuraminidases.
Data set [2] deals with A/Udorn/72 virus. The data set can be described thus: microbe, parasite or virus in culture. Type of data set: cell-based, influenza A virus. Particulars: for activity at 0.25 µM: MDCK, read-out: Virus yield (progeny virus, % of control).
In data set [3] the test system is B/Johannesburg/99 virus. The data set can be described thus: Virus growth inhibition assay in MDCK cells (progeny virus by plaque assay). The format is cell-based, influenza B virus. As to conditions: for activity at 0.25 µM: read-out: Virus yield (progeny virus, % of control). As to the method:
The infectivity of viruses was determined by plaque assay as described below. Ten-fold serial dilutions of virus samples were made in Hanks balanced salt solution (HBSS; GIBCO, Gland Island, NY, USA) and 0.1 ml of the dilutions was inoculated on MDCK cell monolayers in 6-well tissue culture plates (Corning, Lowell, MA, USA). After adsorption of the virus onto the cells for 30 min at room temperature, 1.6 ml of Leibovitz’s L15 medium (GIBCO, Gland Island, NY, USA) containing 0.6% SeaKem ME agarose (Lonza, Basel, Switzerland), 1.5% gelatin (Nacalai, Kyoto, Japan) and 2.5 µg/ml TPCK-trypsin was added to each well and allowed to solidify. The plates were incubated for 3 days at 34°C and the number of plaques was counted. Infectivity was expressed as plaque forming units (pfu) per ml.
The inhibition of virus growth by neuraminidase inhibitors in the presence or absence of bacterial neuraminidase was assayed by measuring the released progeny virus in the culture fluid of infected cells. MDCK cells seeded on 12-well tissue culture plates were inoculated with 50 µl of virus suspension at a MOI of 0.001 or 0.01. After the adsorption for 1 h on ice, 1 ml MEM supplemented with 2.5 µg/ml TPCK-trypsin containing neuraminidase inhibitor and/or bacterial neuraminidase was added to each well. At the indicated times of incubation at 37°C in 5% CO2, culture media were harvested and the virus titers, performed in triplicate wells, were determined by plaque assay.

The test system of data set [4] is neuraminidase of influenza viruses (A/Udorn/72(H3N2), A/Chiba/2009(H1N1)pdm and B/Johannesburg/99). Type of data set: biochemical, influenza virus.
The test system of data set [5] is bacterial and salivary neuraminidases (S. pneumoniae, saliva, A. ureafaciens, V. cholerae RDE). The format is biochemical, human saliva.
Data set [6] can be described thus: Concentration of zanamivir in sputum after oral inhalation (clinical setting). The format is in vivo. Particulars: minutes after oral inhalation of 10 mg of zanamivir powder.
On the set-up of data set [7]: method as in PMID 10858364. As to conditions: 6 h after oral inhalation of 10 mg of zanamivir powder; cited from earlier work.

`CC(=O)N[C@H]1[C@H]([C@H](O)[C@H](O)CO)OC(C(=O)O)=C[C@@H]1O` [DANA, 2-Deoxy-2,3-dehydro-N-acetylneuraminic acid]: the IC50 in data set [1] was 2 to 20 µM. For the same compound, the “Effect on influenza virus production” value is on record as “inhibited influenza virus production” in data set [2] and “inhibited influenza virus production” in data set [3] (2.5 mM DANA, MDCK cells, MOI 0.001, 40 hpi). In addition, the “Restoration of virus production by S. pneumoniae culture supernatant” value in data set [2] and in data set [3] (2.5 mM DANA + S. pneumoniae culture supernatant) was “not restored” in each case.
With `CC(=O)N[C@H]1[C@H]([C@H](O)[C@H](O)CO)OC(C(=O)O)=C[C@@H]1N=C(N)N` [zanamivir, Zanamivir], the “Potency against influenza virus NA relative to bacterial neuraminidases” value in data set [4] was “approximately a million”. Further, the “Concentrations at which bacterial neuraminidases were inhibited” value in data set [5] (Figure 2A) was “above 10 µM”. Besides, the IC50 in data set [5] (range over S. pneumoniae, saliva, A. ureafaciens, V. cholerae RDE) lay in the range of 100 to 5000 µM. Besides, the activity at 0.25 µM in data set [2] (Influenza A virus) stood at 2%; in data set [2] (Streptococcus pneumoniae), 84%; in data set [3] (250 nM zanamivir + Streptococcus pneumoniae culture supernatant (6 µunits/ml neuraminidase activity), MDCK cells, MOI 0.001, 40 hpi), 92%; in data set [3] (Influenza B virus, 250 nM zanamivir, MDCK cells, MOI 0.001, 40 hpi), 0.4%. In data set [6], the “Concentration of zanamivir in sputum, calculated” value is ≤ 5,870 ng/ml and ≤ 17.5 µM. Besides, the “Concentration of zanamivir in sputum” value in data set [7] is ≤ 1,441 ng/ml and ≤ 4.3 µM.
